Data on five compounds can be found in patent publication US20090076012A1, “Modulation of pathogenicity” (priority 2002, published 2009).

As usually defined, the IC50 is the point on the concentration scale where inhibition reaches its midpoint. Low values mean higher potency, high ones lower potency.

The test system of the assay is bioluminescent sensor strain Escherichia coli MT102 (pSB403). Description: Biosensor assay: quorum sensing inhibition, bioluminescence of the sensor strain. Type of assay: cell-based. The conditions noted are these: Escherichia coli, 4 h, 3oxo-C6-HSL 100 nM; bioluminescence after 4 hours at 30° C. In a few lines: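 E. coli MT102 (pSB403) luxR/luxI-promoter–luxCDABE sensor, exponential culture in LB stimulated with 100 nM 3oxo-C6-HSL. Compounds added at eight concentrations; bioluminescence read after 4 h at 30° C. IC50 fitted from light reduction relative to no-inhibitor signal.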
With `O=C(NNC(=O)c1cccs1)c1cccs1` [Compound 46, Thiophene-2-carboxylic acid N′-(thiophene-2-carbonyl)-hydrazide], the IC50 is 50 to 100 µM.
`Cc1cc(C(=O)NNC(=O)c2cccs2)n(C(C)(C)C)n1` [Compound 68, Thiophene-2-carboxylic acid N′-(2-tert-butyl-5-methyl-2H-pyrazole-3-carbonyl)-hydrazide] had an IC50 greater than 100 µM.
Turning to `CCn1nc(C)c(Br)c1C(=O)NNC(=O)c1scc(C)c1Cl` [Compound 72, 4-Bromo-2-ethyl-5-methyl-2H-pyrazole-3-carboxylic acid N′-(3-chloro-4-methylthiophene-2-carbonyl)-hydrazide], the IC50 was greater than 100 µM.
As to `O=C(NNC(=O)c1sccc1Cl)c1cnn(-c2ccccc2)c1C(F)(F)F` [Compound 33, 3-Chloro-thiophene-2-carboxylic acid N′-(1-phenyl-5-trifluoromethyl-1H-pyrazole-4-carbonyl)-hydrazide], the IC50 is greater than 100 µM.
In turn, `Cc1ccc(C(=O)NNC(=O)c2cccs2)s1` [Compound 54, Thiophene-2-carboxylic acid N′-(5-methyl-thiophene-2-carbonyl)-hydrazide] gave an IC50 of 1 to 50 µM.
